Tests used:
[1] = target: T1, human GPR40 (Homo sapiens, UniProt O14842); test: GPR40 calcium flux assay, human GPR40; type: cell-based; settings: HEK293 cells stably expressing GPR40; table does not say human or rat
T1 construct: expressed in transfected cells
Description: Compounds were tested in a calcium flux assay using transfected HEK293 cells stably expressing either human GPR40 or rat GPR40. Human GPR40 expressing cells were cultured in DMEM−High Glucose media supplemented with 10% fetal bovine serum, 1×L-Glutamine, 1×Penicillin/Streptomycin and 500 μg/mL G418. Rat GPR40 expressing cells were cultured in DMEM−High Glucose media supplemented with 10% fetal bovine serum and 1 μg/mL puromycin. Cells were plated into poly-D-lysine coated 384-well plates and cultured overnight in a 37° C. humidified tissue culture incubator under 5% CO2/[…] atmosphere.
On the day of the experiment, the culture media was replaced with assay buffer (HBSS, 20 mM HEPES, 0.1% BSA) and the cells incubated at 37° C. for 1 h. Calcium-sensitive fluorescent dye (Fluo 8 No-Wash Calcium Dye, ABD Bioquest) was then added and the cells incubated for another 30 min at 37° C. followed by 15 min at room temperature while protected from the light. The cell plate and a plate of diluted compounds of Formula (I) were loaded into a fluorescent plate reader that added compounds onto the cells while measuring the fluorescence intensity of each well. The plate reader recorded fluorescence intensity at 1 second intervals for 8 min and provided the data for analysis in an Excel format. EC50 values were calculated using Prism (GraphPad) software.

[2] = target: T2, Human GPR120 short form (Homo sapiens, UniProt Q5NUL3); test: Human GPR120 calcium flux assay, Procedure Calcium B (4200 cells/well); type: cell-based
T2 construct: expressed in transfected cells
T2 sequence (Q5NUL3 1-361): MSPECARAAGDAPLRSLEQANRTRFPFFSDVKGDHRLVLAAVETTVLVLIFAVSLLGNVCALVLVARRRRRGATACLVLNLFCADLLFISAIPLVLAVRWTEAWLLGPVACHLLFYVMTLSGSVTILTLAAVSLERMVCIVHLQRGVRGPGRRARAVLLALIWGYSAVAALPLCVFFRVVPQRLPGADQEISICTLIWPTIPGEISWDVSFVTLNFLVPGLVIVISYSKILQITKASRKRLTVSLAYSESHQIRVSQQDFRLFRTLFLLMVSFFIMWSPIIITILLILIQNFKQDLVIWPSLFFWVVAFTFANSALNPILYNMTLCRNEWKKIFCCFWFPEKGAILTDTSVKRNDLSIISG
Description: Human GPR120 in Calcium Flux Assay
These cells are first loaded with the Ca^+2 sensitive dye, Fluo-4 NW. Upon stimulation, intracellular released Ca^+2 can bind to the dye and alter its fluorescence intensity. This increase in fluorescence signal, and thus the flux in intracellular [Ca^2+], is detected and quantitated by fluorescence imaging using a FLIPR reader. The effect of the agonist is measured as a function of concentration and used to calculate an EC50 based upon a response curve.
In this procedure 4200 cells/well were employed.
A Human GPR120 clone (Genbank accession number NM_001195755.1) was placed into the pcDNA3.1 mammalian expression vector carrying the neomycin resistance gene. A stable mammalian cell was generated by placing the above clone into a HEK293 background. […] Cells were split 2 times a week to keep the cells in the log-phase growth. […]
The assay was performed on a FLIPR plate reader using the following parameters. Baseline was read for 10 seconds at 1 sec intervals. The program was set to transfer 10 μL of ligand from compound plate to cell plate after baseline reading. Aspiration was executed at: 10 μL/sec speed, 4.6 μL height, Dispensing was executed at: 30 μL/sec speed, 45 μL height. After compound addition, each well was read for 300 sec, with measurements collected at 1 sec intervals.
The kinetic data from the FLIPR was based upon a 5 minute window for data collection. The fluorescence of each sample well was used for individual calculations of a normalized RFU value, which was defined as maximum response minus the minimum response. The normalized fluorescence reading (RFU) was calculated as follows: RFU=Fmax−Fmin
The Fitting Equation was: Y=Bottom+(Top-Bottom)/(1+10^((Log EC50−X)*HillSlope)), where X is the log of the concentration and Y is the response.

T1 sequence (O14842 whole entry): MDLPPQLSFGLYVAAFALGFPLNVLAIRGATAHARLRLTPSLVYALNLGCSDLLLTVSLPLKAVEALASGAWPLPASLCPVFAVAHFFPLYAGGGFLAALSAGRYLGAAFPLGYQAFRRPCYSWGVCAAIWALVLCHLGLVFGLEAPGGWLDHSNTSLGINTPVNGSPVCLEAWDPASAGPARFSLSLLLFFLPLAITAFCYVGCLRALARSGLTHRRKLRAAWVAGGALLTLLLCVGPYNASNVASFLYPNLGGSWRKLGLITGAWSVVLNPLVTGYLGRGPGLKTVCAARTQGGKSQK

| SMILES | EC50 [1] [nM] | EC50 [2] [nM] |
| --- | --- | --- |
| Cc1ccc(C2=C(COc3ccc(CCC(=O)O)c(Cl)c3)CC(F)(F)C2)cc1 [Compound 250, 3-[2-chloro-4-[[4,4-difluoro-2-(p-tolyl)cyclopenten-1-yl]methoxy]phenyl]Propanoic Acid] | 1480 | 76 |
| Cc1c(CCC(=O)O)cc(F)c(OCC2=C(c3ccc(F)cc3)CCC2)c1C [Compound 254, 3-[5-fluoro-4-[[2-(4-fluorophenyl)cyclopenten-1-yl]methoxy]-2,3-dimethyl-phenyl]Propanoic Acid] | > 5000 | 594 |
| COc1cc(C)ccc1C1=C(COc2ccc(CCC(=O)O)cc2)CCC1 [Compound 255] | 1300 | > 5000 |
| O=C(O)CCc1ccc(OCC2=C(c3ccccc3)CCC2)cc1Cl [Compound 259, 3-[2-chloro-4-[(2-phenylcyclopenten-1-yl)methoxy]phenyl]Propanoic Acid] | 1570 | 1220 |
| COc1cc(C2=C(COc3ccc(CCC(=O)O)cc3)CCC2)ccc1C [Compound 261] | 1620 | 1540 |
| Cc1cc(OCC2=C(c3ccccc3C)CCC2)c(F)cc1CCC(=O)O [Compound 262, 3-[5-fluoro-2-methyl-4-[[2-(o-tolyl)cyclopenten-1-yl]methoxy]phenyl]Propanoic Acid] | 1290 | > 5000 |
| Cc1ccc(C2=C(COc3cc(C)c(CCC(=O)O)cc3F)CCC2)cc1F [Compound 264, 3-[5-fluoro-4-[[2-(3-fluoro-4-methyl-phenyl)cyclopenten-1-yl]methoxy]-2-methyl-phenyl]Propanoic Acid] | 1590 | 103 |
| Cc1cc(OCC2=C(c3ccccc3Cl)CCC2)c(F)cc1CCC(=O)O [Compound 265, 3-[4-[[2-(2-chlorophenyl)cyclopenten-1-yl]methoxy]-5-fluoro-2-methyl-phenyl]Propanoic Acid] | 1140 | 1210 |

Molecules with a lower EC50 [1], results first:

| EC50 [1] [nM] | EC50 [2] [nM] | SMILES |
| --- | --- | --- |
| 579 | 195 | O=C(O)CCc1ccc(OCC2=C(c3ccc(Cl)cc3)CC(F)(F)C2)cc1Cl [Compound 251, 3-[2-chloro-4-[[2-(4-chlorophenyl)-4,4-difluoro-cyclopenten-1-yl]methoxy]phenyl]Propanoic Acid] |
| 337 | 2640 | Cc1ccccc1C1=C(COc2ccc(CCC(=O)O)c(C(F)(F)F)c2)CCC1 [Compound 257, 3-[4-[[2-(o-tolyl)cyclopenten-1-yl]methoxy]-2-(trifluoromethyl)phenyl]Propanoic Acid] |
| 481 | 614 | O=C(O)CCc1ccc(OCC2=C(c3ccccc3)CCC2)cc1C(F)(F)F [Compound 258, 3-[4-[(2-phenylcyclopenten-1-yl)methoxy]-2-(trifluoromethyl)phenyl]Propanoic Acid] |
| 488 | 541 | O=C(O)CCc1ccc(OCC2=C(c3ccc(F)cc3)CCC2)cc1Cl [Compound 260, 3-[2-chloro-4-[[2-(4-fluorophenyl)cyclopenten-1-yl]methoxy]phenyl]Propanoic Acid] |
| 134 | 262 | O=C(O)CCc1ccc(OCC2=C(c3cccc(F)c3)CCC2)cc1C(F)(F)F [Compound 263, 3-[4-[[2-(3-fluorophenyl)cyclopenten-1-yl]methoxy]-2-(trifluoromethyl)phenyl]Propanoic Acid] |
| 992 | 685 | [2H]C([2H])([2H])c1ccc(C2=C(COc3ccc(CCC(=O)O)c(C(F)(F)F)c3)CCC2)cc1 [Compound 268-D, 3-[4-[[2-[4-(trideuteriomethyl)phenyl]cyclopenten-1-yl]methoxy]-2-(trifluoromethyl)phenyl]Propanoic Acid] |
| 604 | 2240 | O=C(O)CCc1ccc(OCC2=C(c3ccc(Br)cc3)CCC2)cc1C(F)(F)F [Compound 269, 3-[4-[[2-(4-bromophenyl)cyclopenten-1-yl]methoxy]-2-(trifluoromethyl)phenyl]Propanoic Acid] |

— US11230526B1, “Cylcoalkenyl derivatives useful as agonists of the GPR120 and/or GPR40 receptors” (Janssen Pharmaceutica NV, priority 2018, dated 2022)
